PMC5706701, “Development of a homogenous high-throughput assay for inositol hexakisphosphate kinase 1 activity” (PLoS ONE, 2017)
Where a name gives a salt, the structure may show the parent alone. Read-outs that look alike come from different tables or passages of the source.

Target: T1, Human IP6K1 (Homo sapiens, UniProt Q92551)
T1 construct: GST (N, cleaved yes); made in house; host or cells: C43 E. coli, pGEX-6P-2
Test: IP6K1 high-throughput screen of the Sigma LOPAC (ADP-Glo Max, single point);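 also: final compound concentration 10µM in 5% DMSO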
Type: biochemical

[1] = Sigma LOPAC single-point screen, ADP-Glo Max raw signal per well
[2] = Sigma LOPAC single-point screen, Z-score from plate average and StDev
[3] = LOPAC single-point screen, ADP-Glo Max luminescence raw signal per well
[4] = LOPAC single-point screen, Z-score from plate average and StDev
[5] = LOPAC single-point screen, ADP-Glo Max raw signal per well
[6] = LOPAC single-point screen, Z-score against plate average and StDev
[7] = LOPAC single-point screen, Z-score relative to plate average and StDev
[8] = LOPAC single-point screen, Z-score from raw signal with plate average and StDev

T1 sequence (Q92551 whole entry): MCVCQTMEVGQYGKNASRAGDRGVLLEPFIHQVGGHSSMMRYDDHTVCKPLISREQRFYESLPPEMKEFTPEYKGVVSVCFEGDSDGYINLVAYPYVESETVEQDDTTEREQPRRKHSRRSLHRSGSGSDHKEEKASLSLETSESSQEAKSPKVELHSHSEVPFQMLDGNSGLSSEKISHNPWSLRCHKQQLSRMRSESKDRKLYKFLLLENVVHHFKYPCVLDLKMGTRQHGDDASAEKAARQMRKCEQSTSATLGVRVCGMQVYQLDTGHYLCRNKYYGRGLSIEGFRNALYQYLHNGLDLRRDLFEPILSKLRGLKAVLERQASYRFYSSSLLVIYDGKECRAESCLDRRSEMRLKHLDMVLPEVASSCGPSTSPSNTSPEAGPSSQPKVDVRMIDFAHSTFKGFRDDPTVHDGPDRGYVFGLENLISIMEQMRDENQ

CCCCN1CCC(COC(=O)c2cc(Cl)c(N)c3c2OCCO3)CC1.Cl [SB 204070 hydrochloride]
Raw Signal [1]: 60689
Z-score [2]: 0.9064

NC(=O)CI [Iodoacetamide]
Raw Signal [3]: 64727
Z-score [4]: 1.942

FC(F)(F)c1ccccc1-n1ccnc1 [1-[2-(Trifluoromethyl)phenyl]imidazole]
Raw Signal [1]: 60208
Z-score [2]: 0.8129

CC(C)(C=O)Cc1cc(C(C)(C)C)c(O)c(C(C)(C)C)c1 [CGP-13501]
Raw Signal [5]: 59120
Z-score [6]: 0.2126

N[C@@H](COP(=O)(O)O)C(=O)O [O-Phospho-L-serine]
Raw Signal [1]: 59842
Z-score [2]: 0.9155

O=c1[nH]c(=O)n([C@H]2C[C@H](O)[C@@H](CO)O2)cc1/C=C/Br [(E)-5-(2-Bromovinyl)-2-deoxyuridine]
Raw Signal [5]: 57888
Z-score [6]: -0.004421

O=c1[nH]cc(F)c(=O)[nH]1 [5-Fluorouracil]
Raw Signal [3]: 52294
Z-score [7]: -0.5835

NS 521 oxalate
Raw Signal [5]: 56111
Z-score [6]: 0.2886

N=C(N)NC(CCC(=O)O)C(=O)O (stereo not drawn) [alpha-Guanidinoglutaric acid]
Raw Signal [5]: 54052
Z-score [8]: -0.2265

Cl.O=c1cc(N2CCOCC2)oc2c(-c3ccccc3)cccc12 [LY-294,002 hydrochloride]
Raw Signal [3]: 50825
Z-score [7]: -0.5996

CCc1ccccc1OC[C@@H](O)CN[C@H]1CCCc2ccccc21.O=C(O)C(=O)O [SR 59230A oxalate]
Raw Signal [5]: 55204
Z-score [8]: -0.1593

CCCOC(=O)c1c(-c2ccccc2)nc(CC)c(C(=O)SCC)c1CCC [MRS 1523]
Raw Signal [5]: 53053
Z-score [8]: -0.2252

NCC(=O)NCCC(c1ccccc1)c1ccccc1 [N-(3,3-Diphenylpropyl)glycinamide]
Raw Signal [3]: 66051
Z-score [4]: 2.21

Cc1ccc(S(=O)(=O)N[C@@H](CCCCN)C(=O)CCl)cc1.Cl
Raw Signal [3]: 53467
Z-score [7]: -0.4967

CC(=O)[C@H]1CC[C@H]2[C@@H]3CC[C@H]4C[C@H](O)CC[C@]4(C)[C@H]3CC[C@]12C [5alpha-Pregnan-3alpha-ol-20-one]
Raw Signal [5]: 55941
Z-score [6]: -0.01609

CC(C)(C)c1onc(OCP(=O)(O)O)c1CC(N)C(=O)O (stereo not drawn) [ATPO]
Raw Signal [1]: 60120
Z-score [2]: 0.3887

CN[C@H](CC(=O)O)C(=O)O [N-Methyl-D-aspartic acid]
Raw Signal [1]: 57133
Z-score [2]: 0.4603

CC(=O)NCCc1c[nH]c2ccc(O)cc12 [N-Acetyl-5-hydroxytryptamine]
Raw Signal [3]: 55051
Z-score [7]: -0.5041

Cc1nc(N=Nc2cc(S(=O)(=O)[O-])c3cc([N+](=O)[O-])cc(S(=O)(=O)[O-])c3c2)c(COP(=O)([O-])[O-])c(C=O)c1O.[Na+].[Na+].[Na+].[Na+] [PPNDS tetrasodium]
Raw Signal [3]: 31816
Z-score [7]: -3.794

CC(=O)NBr [N-Bromoacetamide]
Raw Signal [1]: 65186
Z-score [2]: 1.281

O=c1cc(-c2ccc(O)c(O)c2)oc2cc(O)cc(O)c12 [Luteolin]
Raw Signal [3]: 50800
Z-score [7]: -0.6038

O=C(Nc1ccc([N+](=O)[O-])cc1Cl)c1cc(Cl)ccc1O [Niclosamide]
Raw Signal [5]: 53914
Z-score [6]: -0.08057

O=C(O)CN(CCN(CC(=O)O)CC(=O)O)CCN(CC(=O)O)CC(=O)O [Diethylenetriaminepentaacetic acid]
Raw Signal [5]: 53021
Z-score [8]: -0.4358

C[C@H]1C[C@H]2[C@@H]3CCC4=CC(=O)C=C[C@]4(C)[C@@]3(F)[C@@H](O)C[C@]2(C)[C@@]1(O)C(=O)CO [Betamethasone]
Raw Signal [5]: 58863
Z-score [6]: 0.1673

NS(=O)(=O)c1cc2c(cc1Cl)NC(C1CC3C=CC1C3)NS2(=O)=O (stereo not drawn) [Cyclothiazide]
Raw Signal [1]: 61194
Z-score [2]: 1.224

CN(C)CCC(c1ccccc1)c1ccccn1 (stereo not drawn) [Pheniramine maleate]
Raw Signal [5]: 57488
Z-score [6]: 0.2845

CCCCNC(=O)NS(=O)(=O)c1ccc(C)cc1 [Tolbutamide]
Raw Signal [3]: 65444
Z-score [4]: 1.83

CCCn1cnc2c1c(=O)n(CCCCC(C)=O)c(=O)n2C [Propentofylline]
Raw Signal [5]: 54119
Z-score [8]: -0.3701

Nc1nc(Cl)nc2c1ncn2[C@@H]1O[C@H](COP(=O)(O)OP(=O)(O)OP(=O)(O)O)C(O)C1O (stereo in doubt)
Raw Signal [3]: 49196
Z-score [7]: -1.213

O=Nc1ccc2oc(=O)ccc2c1 [6-Nitroso-1,2-benzopyrone]
Raw Signal [1]: 57563
Z-score [2]: 0.5326

O=C(Nc1cc(C(=O)Nc2ccc(S(=O)(=O)[O-])cc2S(=O)(=O)[O-])cc(C(=O)Nc2ccc(S(=O)(=O)[O-])cc2S(=O)(=O)[O-])c1)Nc1cc(C(=O)Nc2ccc(S(=O)(=O)[O-])cc2S(=O)(=O)[O-])cc(C(=O)Nc2ccc(S(=O)(=O)[O-])cc2S(=O)(=O)[O-])c1.[Na+].[Na+].[Na+].[Na+].[Na+].[Na+].[Na+].[Na+] [NF449 octasodium salt]
Raw Signal [3]: 9787
Z-score [7]: -7.495

CC(C)COCC(CN(Cc1ccccc1)c1ccccc1)N1CCCC1 (stereo not drawn) [Bepridil hydrochloride]
Raw Signal [1]: 60020
Z-score [2]: 0.3711

COC(=O)[C@@H]1[C@H]2C[C@H]3c4[nH]c5ccccc5c4CCN3C[C@@H]2CC[C@@H]1O [Yohimbine hydrochloride]
Raw Signal [5]: 57737
Z-score [6]: 0.3328

NS(=O)(=O)Cc1noc2ccccc12 [Zonisamide sodium]
Raw Signal [5]: 56166
Z-score [6]: 0.02763

CC(N)Cc1c[nH]c2ccc(OCc3cccs3)cc12 (stereo not drawn) [BW 723C86]
Raw Signal [3]: 55162
Z-score [7]: -0.4845

CCN1C[C@]2(C)CC[C@H](O)[C@]34C1[C@@H](C[C@H]23)[C@@]1(O)C[C@H](OC)[C@H]2C[C@@H]4[C@@H]1[C@H]2O [Karakoline]
Raw Signal [5]: 53043
Z-score [8]: -0.2269

CSC(=N)N.CSC(=N)N.O=S(=O)(O)O [S-Methylisothiourea hemisulfate]
Raw Signal [5]: 51759
Z-score [8]: -0.4427

Br.Cc1o[nH]c(=O)c1CC(N)C(=O)O (racemic) [(±)-AMPA hydrobromide]
Raw Signal [5]: 54656
Z-score [8]: -0.1038

N#C/C(=C\c1ccc(O)c(O)c1)C(=O)Nc1ccccc1 [Tyrphostin AG 494]
Raw Signal [5]: 54872
Z-score [8]: -0.2238

COc1ccc2c(c1)c(CC(=O)N1CCOCC1)c(C)n2C(=O)c1ccc(Cl)cc1 [Indomethacin morpholinylamide]
Raw Signal [5]: 52785
Z-score [8]: -0.2703

Cl.NCCNC(=O)c1ncsc1-c1cccc(F)c1 [Ro 41-1049 hydrochloride]
Raw Signal [1]: 60989
Z-score [2]: 0.9646

N.S=C(S)N1CCCC1 [Ammonium pyrrolidinedithiocarbamate]
Raw Signal [1]: 60867
Z-score [2]: 0.9409

O=C1CCc2cc(OCCCCc3nnnn3C3CCCCC3)ccc2N1 [Cilostazol]
Raw Signal [5]: 58165
Z-score [6]: 0.04437

CC(C)Cn1c(=O)n(C)c(=O)c2[nH]cnc21 [3-Isobutyl-1-methylxanthine]
Raw Signal [1]: 62159
Z-score [2]: 1.305

CN1CCc2ccccc2Cc2[nH]c3ccccc3c2CC1 [LE 300]
Raw Signal: 53844
Z-score: -0.09233

C/C=C(/C)C(=O)O[C@H]1C(C)=C2[C@H]([C@@H]1OC(=O)CCCCCCC)[C@@](C)(OC(C)=O)C[C@H](OC(=O)CCC)[C@@]1(O)[C@H]2OC(=O)[C@@]1(C)O [Thapsigargin]
Raw Signal [5]: 56574
Z-score [6]: 0.1069

Cc1nc2sccn2c(=O)c1CCN1CCC(=C(c2ccc(F)cc2)c2ccc(F)cc2)CC1 [Ritanserin]
Raw Signal [5]: 56847
Z-score [6]: 0.1599

Nc1ncnc2c1ncn2C1CCCC1 [9-cyclopentyladenine]
Raw Signal [1]: 60166
Z-score [2]: 0.3968

CCN(CC)CCNC(=O)c1ccc(N)cc1 [Procainamide hydrochloride]
Raw Signal [3]: 51793
Z-score [7]: -0.822

N[C@@H](Cc1c[nH]c2ccc(O)cc12)C(=O)O [5-Hydroxy-L-tryptophan]
Raw Signal [1]: 60622
Z-score [2]: 1.108

C[C@]12CC[C@H](O)CC1=CC[C@@H]1[C@@H]2CC[C@]2(C)C(=O)CC[C@@H]12 [trans-Dehydroandrosterone]
Raw Signal [5]: 53982
Z-score [8]: -0.2407

COc1cccc(NC(=O)/C=C/c2ccc(Cl)cc2)c1 [SB-366791]
Raw Signal [3]: 52546
Z-score [7]: -0.6757

CC(=O)OCC(=O)[C@@]1(O)CC[C@H]2[C@@H]3CCC4=CC(=O)CC[C@]4(C)[C@H]3C(=O)C[C@@]21C [Cortisone 21-acetate]
Raw Signal [5]: 59780
Z-score [6]: 0.3288

Nc1ccc(CCN2CCN(c3cccc(C(F)(F)F)c3)CC2)cc1 [PAPP]
Raw Signal [5]: 56132
Z-score [6]: 0.02102

CN1CCc2cccc3c2[C@H]1Cc1ccc(O)c(O)c1-3 [Apomorphine hydrochloride hemihydrate]
Raw Signal [3]: 53248
Z-score [7]: -0.8217

CN(C)C/C=C(/c1ccc(Br)cc1)c1cccnc1 [Zimelidine dihydrochloride]
Raw Signal [3]: 63127
Z-score [4]: 1.38

COc1cc(CC(=O)O)ccc1O [4-Hydroxy-3-methoxyphenylacetic acid]
Raw Signal [1]: 58602
Z-score [2]: 0.6976

N#C/C(=C\c1ccc(O)c(O)c1)C(=O)c1ccc(O)c(O)c1 [Tyrphostin AG 538]
Raw Signal [3]: 38614
Z-score [7]: -3.382

CCCCCCCCCCCCCCCCCCNC(=O)OCC(COP(=O)([O-])OCC[n+]1ccsc1)OC (stereo not drawn) [CV-3988]
Raw Signal [3]: 52703
Z-score [7]: -0.6452

Cl.NC(N)=NCCNS(=O)(=O)c1cccc2cnccc12 [HA-1004 hydrochloride]
Raw Signal [3]: 50838
Z-score [7]: -0.8792
